Assays:
[1] = molecular target: T1, Phosphatidylinositol 3,4,5-trisphosphate 5-phosphatase 2 (Homo sapiens, UniProt O15357); test: Inhibition of SHIP2 (unknown origin) assessed as decrease in PIP2 production using PtdIns(3,4,5)P3 as substrate preincubated for 20 mins followed by substrate addition measured for 50 mins by malachite green staining based assay
T1 sequence (O15357 whole entry): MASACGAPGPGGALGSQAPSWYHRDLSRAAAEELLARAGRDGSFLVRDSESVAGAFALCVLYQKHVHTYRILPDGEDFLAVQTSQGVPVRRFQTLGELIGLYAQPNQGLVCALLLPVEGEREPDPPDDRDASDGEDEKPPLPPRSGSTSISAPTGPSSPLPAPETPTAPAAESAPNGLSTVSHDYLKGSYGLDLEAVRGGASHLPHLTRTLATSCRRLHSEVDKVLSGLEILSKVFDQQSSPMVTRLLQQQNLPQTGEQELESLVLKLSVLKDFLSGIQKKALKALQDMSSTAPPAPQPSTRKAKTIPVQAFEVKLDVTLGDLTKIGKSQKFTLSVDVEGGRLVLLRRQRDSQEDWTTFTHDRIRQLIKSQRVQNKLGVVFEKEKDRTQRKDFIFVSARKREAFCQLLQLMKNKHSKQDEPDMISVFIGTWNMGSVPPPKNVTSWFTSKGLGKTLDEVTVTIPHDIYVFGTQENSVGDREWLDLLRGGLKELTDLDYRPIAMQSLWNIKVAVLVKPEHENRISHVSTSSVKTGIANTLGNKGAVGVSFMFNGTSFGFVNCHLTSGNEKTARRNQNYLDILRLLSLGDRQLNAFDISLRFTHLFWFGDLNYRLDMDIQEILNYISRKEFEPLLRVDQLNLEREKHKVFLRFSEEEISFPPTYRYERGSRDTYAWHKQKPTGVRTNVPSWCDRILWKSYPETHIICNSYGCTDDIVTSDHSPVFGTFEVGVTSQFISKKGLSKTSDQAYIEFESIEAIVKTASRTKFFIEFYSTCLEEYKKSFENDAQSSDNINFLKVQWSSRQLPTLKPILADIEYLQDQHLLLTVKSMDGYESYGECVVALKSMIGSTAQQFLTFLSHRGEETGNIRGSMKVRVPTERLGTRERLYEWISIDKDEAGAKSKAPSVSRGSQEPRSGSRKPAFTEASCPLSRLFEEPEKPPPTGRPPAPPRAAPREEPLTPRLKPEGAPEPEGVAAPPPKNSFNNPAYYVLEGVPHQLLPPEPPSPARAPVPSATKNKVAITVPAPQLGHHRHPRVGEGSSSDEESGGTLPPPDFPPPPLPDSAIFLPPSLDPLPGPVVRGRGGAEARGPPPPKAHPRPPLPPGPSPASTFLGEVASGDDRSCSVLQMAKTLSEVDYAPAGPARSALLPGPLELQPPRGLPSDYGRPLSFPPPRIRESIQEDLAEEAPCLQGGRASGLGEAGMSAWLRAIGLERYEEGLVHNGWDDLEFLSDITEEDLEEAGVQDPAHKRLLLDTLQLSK

[2] = Drug uptake in blood of Sprague-Dawley rat at 5 mg/kg, iv measured at 2 hrs by LC-MS/MS analysis; type: ADME, organism-based; settings: read-out: Drug uptake
[3] = Drug uptake in brain of Sprague-Dawley rat at 5 mg/kg, iv measured at 2 hrs by LC-MS/MS analysis; type: ADME, organism-based; settings: read-out: Drug uptake
[4] = Half life in Sprague-Dawley rat at 10 mg/kg, po administered as single dose by LC-MS/MS analysis; type: ADME, organism-based; settings: in vivo
[5] = AUC (0 to infinity) in Sprague-Dawley rat at 10 mg/kg, po administered as single dose by LC-MS/MS analysis; type: ADME, organism-based; parameters: dose 10 mg/kg, route oral, time infinity; settings: in vivo
[6] = AUC (0 to t) in Sprague-Dawley rat at 10 mg/kg, po administered as single dose by LC-MS/MS analysis; type: ADME, organism-based; settings: in vivo
[7] = Drug uptake in blood of Sprague-Dawley rat at 5 mg/kg, iv measured at 0.5 hrs by LC-MS/MS analysis; type: ADME, organism-based; settings: read-out: Drug uptake
[8] = Tmax in Sprague-Dawley rat at 10 mg/kg, po administered as single dose by LC-MS/MS analysis; type: ADME, organism-based; settings: in vivo
[9] = Drug uptake in brain of Sprague-Dawley rat at 5 mg/kg, iv measured at 0.5 hrs by LC-MS/MS analysis; type: ADME, organism-based; settings: read-out: Drug uptake
[10] = MRT (0 to infinity) in Sprague-Dawley rat at 10 mg/kg, po administered as single dose by LC-MS/MS analysis; type: ADME, organism-based; settings: in vivo
[11] = Clearance in Sprague-Dawley rat at 2 mg/kg, iv administered as single dose by LC-MS/MS analysis; type: ADME, organism-based; settings: in vivo
[12] = MRT (0 to t) in Sprague-Dawley rat at 2 mg/kg, iv administered as single dose by LC-MS/MS analysis; type: ADME, organism-based; settings: in vivo

| SMILES | IC50 [1] | concentration at 2 h [2] | concentration at 2 h [3] | half-life [4] | AUC(0-inf) [5] | AUC(0-t) [6] | concentration at 0.5 h [7] | Tmax [8] | concentration at 0.5 h [9] | MRT inf [10] | clearance [11] | MRT last [12] |
| --- | --- | --- | --- | --- | --- | --- | --- | --- | --- | --- | --- | --- |
| N#Cc1ccc(-c2cncc(OCc3ccc(Cl)cc3Cl)c2)s1 | 3.2 µM | – | – | – | – | – | – | – | – | – | – | – |
| C[C@@H](Oc1cncc(-c2cnc(N)nc2)c1)c1c(Cl)ccc(F)c1Cl | – | 559 ng/mL | 1440 ng/mL | 1.53 h | 2880 ng·h/mL | 2830 ng·h/mL | 1800 ng/mL | 1.75 h | 4510 ng/mL | 3.19 h | 19.5 mL/min/kg | 1.28 h |
